Experimental data reported in patent publication US20180186742A1, “PICOLINAMIDES AS FUNGICIDES” (Dow AgroSciences LLC, priority 2017, published 2018).
Where two headings read alike, the source gives them in different places.

How the values were obtained:
Type in all cases: in vivo
Cercospora beticola = test: Leaf spot of sugar beets (CERCBE), disease control on sugar beet plants; conditions: 1DP test at 100 ppm, read-out: CERCBE disease control rating
Method: Technical grades of materials were dissolved in acetone, which were then mixed with nine volumes of water containing 110 ppm Triton X-100. The fungicide solutions were applied onto wheat seedlings using an automated booth sprayer to run-off. All sprayed plants were allowed to air dry prior to further handling. All fungicides were evaluated using the aforementioned method for their activity vs. all target diseases, unless stated otherwise. Wheat leaf blotch and brown rust activity were also evaluated using track spray applications, in which case the fungicides were formulated as EC formulations, containing 0.1% Trycol 5941 in the spray solutions. Sugar beet plants (variety HH88) were grown in soil-less Metro mix and trimmed regularly to maintain a uniform plant size prior to test. Plants were inoculated with a spore suspension 24 hr after fungicide treatments. Inoculated plants were kept in a dew chamber at 22° C. for 48 hr then incubated in a greenhouse set at 24° C. under a clear plastic hood with bottom ventilation until disease symptoms were fully expressed. Fungicide formulation, application and disease assessment on the sprayed leaves followed the procedures as described in the Example A.

Alternaria solani = test: Tomato early blight (ALTESO), disease control on tomato plants; conditions: 1DP test at 100 ppm, read-out: ALTESO disease control rating
Method: Technical grades of materials were dissolved in acetone, which were then mixed with nine volumes of water containing 110 ppm Triton X-100. The fungicide solutions were applied onto wheat seedlings using an automated booth sprayer to run-off. All sprayed plants were allowed to air dry prior to further handling. All fungicides were evaluated using the aforementioned method for their activity vs. all target diseases, unless stated otherwise. Wheat leaf blotch and brown rust activity were also evaluated using track spray applications, in which case the fungicides were formulated as EC formulations, containing 0.1% Trycol 5941 in the spray solutions. Tomato plants (variety Outdoor Girl) were propagated in soil-less Metro mix, with each pot having one plant, and used when 12 to 14 days old. Test plants were inoculated with an aqueous spore suspension of Alternaria solani 24 hr after fungicide treatments. After inoculation the plants were kept in 100% relative humidity (one day in a dark dew chamber followed by two to three days in a lighted dew chamber at 20° C.) to permit spores to germinate and infect the leaf. The plants were then transferred to a growth room at 22° C. for disease to develop. Fungicide formulation, application and disease assessment on the sprayed leaves followed the procedures as described in the Example A.

Uncinula necator = test: Grape powdery mildew (UNCINE), disease control on grape seedlings; conditions: Erysiphe necator, 24 h, 1DP (1 Day Protectant) test at 100 ppm
Method: Technical grades of materials were dissolved in acetone, which were then mixed with nine volumes of water containing 110 ppm Triton X-100. The fungicide solutions were applied onto wheat seedlings using an automated booth sprayer to run-off. All sprayed plants were allowed to air dry prior to further handling. All fungicides were evaluated using the aforementioned method for their activity vs. all target diseases, unless stated otherwise. Wheat leaf blotch and brown rust activity were also evaluated using track spray applications, in which case the fungicides were formulated as EC formulations, containing 0.1% Trycol 5941 in the spray solutions. Grape seedlings (variety Carignane) were grown in soil-less Metro mix, with one plant per pot, and used in the test when approximately 1 month old. Plants were inoculated 24 hr after fungicide treatment by shaking spores from infected leaves over test plants. Plants were maintained in a greenhouse set at 20° C. until disease was fully developed. Fungicide formulation, application and disease assessment on sprayed leaves followed the procedures as described in the Example A.

[1] = system: Pseudoperonospora cubensis; test: Cucumber downy mildew (PSPECU), disease control on cucumber seedlings; conditions: 24 h, 1DP (1 Day Protectant) test at 100 ppm
Method: Technical grades of materials were dissolved in acetone, which were then mixed with nine volumes of water containing 110 ppm Triton X-100. The fungicide solutions were applied onto wheat seedlings using an automated booth sprayer to run-off. All sprayed plants were allowed to air dry prior to further handling. All fungicides were evaluated using the aforementioned method for their activity vs. all target diseases, unless stated otherwise. Wheat leaf blotch and brown rust activity were also evaluated using track spray applications, in which case the fungicides were formulated as EC formulations, containing 0.1% Trycol 5941 in the spray solutions. Cucumber seedlings (variety Bush Pickle) were grown in soil-less Metro mix, with one plant per pot, and used in the test when 12 to 14 days old. Plants were inoculated with a spore suspension 24 hr following fungicide treatments. Test plants were inoculated with an aqueous spore suspension of Pseudoperonospora cubensis 24 hr after fungicide treatments. After inoculation the plants were kept in a dew room at 22° C. with 100% relative humidity for 24 hr to permit spores to germinate and infect the leaf. The plants were then transferred to a greenhouse set at 20° C. until disease was fully expressed. Fungicide formulation, application and disease assessment on the sprayed leaves followed the procedures as described in the Example A.

Zymoseptoria tritici = test: Leaf blotch of wheat (SEPTTR), disease control on wheat seedlings; conditions: low volume application at 121.5 g/H
In short: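 Yuma wheat seedlings with the first leaf fully emerged were sprayed to run-off with compound in acetone plus nine volumes of water containing 110 ppm Triton X-100; track-spray tests used EC formulations with 0.1% Trycol 5941. Z. tritici inoculation came before or after treatment, followed by 100% RH dew periods and a 20 °C greenhouse. Percent control was calculated from severity versus untreated plants.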

[2] = 24 h, 1 Day Protectant, wheat leaf blotch, read-out: SEPTTR 1DP disease control, LV activity
[3] = 72 h, 3 Day Curative, wheat leaf blotch, read-out: SEPTTR 3DC disease control, LV activity
[4] = 24 h, 1 Day Protectant, read-out: SEPTTR disease control, 1DP, LV activity
[5] = 72 h, 3 Day Curative, read-out: SEPTTR disease control, 3DC, LV activity

SMILES | pest or weed control at 100 ppm (Cercospora beticola) [%] | pest or weed control at 100 ppm (Alternaria solani) [%] | pest or weed control at 100 ppm (Uncinula necator) [%] | pest or weed control at 100 ppm [1] [%] | pest or weed control at 121.5 g/ha (Zymoseptoria tritici; [2]) [%] | pest or weed control at 121.5 g/ha (Zymoseptoria tritici; [3]) [%] | pest or weed control at 121.5 g/ha (Zymoseptoria tritici; [4]) [%] | pest or weed control at 121.5 g/ha (Zymoseptoria tritici; [5]) [%]
CCOC(=O)Oc1c(OC)ccnc1C(=O)N[C@@H](C)C(=O)O[C@@H](C)[C@H](c1ccc(F)cc1C)C(C)C [Compound 372] | > 80 | > 80 | > 80 | > 80 | – | – | – | –
COc1ccnc(C(=O)N[C@@H](C)C(=O)O[C@@H](C)[C@H](c2ccc(F)cc2C)C(C)C)c1OC(=O)C(C)(C)C [Compound 374] | > 80 | < 80 | > 80 | < 80 | > 80 | > 80 | – | –
COc1ccnc(C(=O)N[C@@H](C)C(=O)O[C@@H](C)[C@H](c2ccccc2C)C(C)C)c1OC(C)=O [Compound 364] | > 80 | < 80 | > 80 | < 80 | < 80 | < 80 | – | –
CCC(C)C(=O)Oc1c(OC)ccnc1C(=O)N[C@@H](C)C(=O)O[C@@H](C)[C@H](c1ccc(F)cc1C)C(C)C (some centres unmarked) [Compound 355] | > 80 | > 80 | > 80 | < 80 | – | – | > 80 | > 80
COc1ccnc(C(=O)N[C@@H](C)C(=O)O[C@@H](C)[C@H](c2cccc(F)c2C)C(C)C)c1OC(C)=O [Compound 359] | > 80 | < 80 | > 80 | < 80 | – | – | < 80 | > 80
COc1ccnc(C(=O)N[C@@H](C)C(=O)O[C@@H](C)[C@H](c2ccc(F)cc2C)C(C)C)c1OC(=O)CC(C)C [Compound 356] | > 80 | > 80 | > 80 | < 80 | – | – | > 80 | > 80
COc1ccnc(C(=O)N[C@@H](C)C(=O)O[C@@H](C)[C@H](c2ccccc2C)C(C)C)c1OC(=O)C(C)C [Compound 375] | > 80 | < 80 | > 80 | < 80 | < 80 | > 80 | – | –
COc1ccnc2c(=O)n([C@@H](C)C(=O)O[C@@H](C)[C@H](c3ccc(F)cc3C)C(C)C)c(=O)oc12 [Compound 217] | > 80 | < 80 | > 80 | < 0 | – | – | > 80 | > 80
COc1ccnc(C(=S)N[C@@H](C)C(=O)O[C@@H](C)[C@H](c2ccc(F)cc2C)C(C)C)c1OC(C)=O [Compound 219] | > 80 | < 80 | > 80 | < 80 | – | – | < 80 | > 80
CCC(=O)Oc1c(OC)ccnc1C(=O)N[C@@H](C)C(=O)O[C@@H](C)[C@H](c1ccc(F)cc1C)C(C)C [Compound 357] | > 80 | < 80 | > 80 | < 80 | – | – | > 80 | > 80
COc1ccnc(C(=O)N[C@@H](C)C(=O)O[C@@H](C)[C@H](c2ccc(F)cc2C)C(C)C)c1OC(=O)C(C)C [Compound 216] | > 80 | < 80 | > 80 | < 80 | – | – | > 80 | > 80
COCCC(=O)Oc1c(OC)ccnc1C(=O)N[C@@H](C)C(=O)O[C@@H](C)[C@H](c1ccc(F)cc1C)C(C)C [Compound 220] | > 80 | < 80 | > 80 | < 0 | – | – | > 80 | > 80
COc1ccnc(C(=O)N[C@@H](C)C(=O)O[C@@H](C)[C@H](c2cccc(C)c2C)C(C)C)c1OC(C)=O [Compound 363] | > 80 | < 0 | > 80 | < 0 | – | – | < 80 | < 80
COc1ccnc(C(=O)N[C@@H](C)C(=O)O[C@@H](C)[C@H](c2ccc(F)cc2C)C(C)C)c1OC(=O)OC(C)C [Compound 373] | > 80 | < 80 | > 80 | < 80 | > 80 | > 80 | – | –
CCC(CC)[C@@H](c1ccc(F)cc1C)[C@H](C)OC(=O)[C@H](C)NC(=O)c1nccc(OC)c1OC(C)=O [Compound 187] | > 80 | < 80 | > 80 | < 0 | – | – | > 80 | > 80
COc1ccnc(C(=O)N[C@@H](C)C(=O)O[C@@H](C)[C@H](c2ccc(F)cc2C)C(C)C)c1OC(C)=O [Compound 186] | > 80 | > 80 | > 80 | < 80 | – | – | > 80 | > 80
COc1cc[n+]([O-])c(C(=O)N[C@@H](C)C(=O)O[C@@H](C)[C@H](c2ccc(F)cc2C)C(C)C)c1O [Compound 218] | > 80 | < 0 | > 80 | < 0 | – | – | > 80 | < 80
CCOC(=O)Oc1c(OC)ccnc1C(=O)N(C(=O)OCC)[C@@H](C)C(=O)O[C@@H](C)[C@H](c1ccc(F)cc1C)C(C)C [Compound 371] | > 80 | < 80 | > 80 | < 80 | – | – | – | –
